Measurements reported in patent US4283539A, “Isoquinoline acetic acids” (Pfizer Inc., priority 1979, dated 1981).
Where a name gives a salt, the structure may show the parent alone.

Target: T1, aldose reductase (Bos taurus, UniProt P16116)
T1 construct: partially purified aldose reductase enzyme obtained from calf lens; from tissue; host or cells: calf lens
Assay: Inhibition of aldose reductase enzyme activity (procedure of U.S. Pat. No. 3,821,383, based on Hayman et al.)
Type: biochemical
Settings: partially purified aldose reductase from calf lens; for inhibition at 100 µM: 10^-4 M; for inhibition at 10 µM: 10^-5 M
Source text: The activity of the compounds of this invention as aldose reductase inhibitors and as agents for the treatment of diabetic cataracts may be determined by standard pharmacological tests. Such tests include, for example, measuring their ability to inhibit the enzyme activity of isolated aldose reductase, following the general procedure described in U.S. Pat. No. 3,821,383 and based on the procedure of Hayman et al., J. Biol. Chem. 240, 877 (1965). Based on the activity of the compounds of this invention in this test, it is expected that the compounds will also show activity as aldose reductase inhibitors when tested at suitable concentrations in other standard pharmaceutical tests, for example those measuring their ability to reduce or inhibit sorbitol accumulation in the sciatic nerve of acutely streptozotocinized (i.e. diabetic) rats; measuring their ability to reverse already-elevated sorbitol level in the sciatic nerve and lens of chronic streptozotocin-induced diabetic rats; measuring their ability to prevent or inhibit galacticol formation in the lens of acutely galatosemic rats; and measuring their ability to delay cataract formation and reduce the severity of lens opacities in chronic galactosemic rats.
The compounds produced in Examples 4, 7, 8, 9 and 10 were tested for their ability to reduce or inhibit aldose reductase enzyme activity, following the procedure described in U.S. Pat. No. 3,821,383 and based on the procedure of Hayman et. al., Journal of Biological Chemistry, 240, 877 (1965). The substrate employed was partially purified aldose reductase enzyme obtained from calf lens. The results obtained with each compound at a concentration of 10^-4 M and 10^-5 M are expressed as percent inhibition of enzyme activity.

| Compound | inhibition at 100 µM [%] | inhibition at 10 µM [%] |
| --- | --- | --- |
| Cc1nc(Oc2ccc(Cl)cc2)c2ccccc2c1CC(=O)O [Example 9, 1-(4-Chlorophenoxy)-3-methyl-4-isoquinoline Acetic Acid] | 95 | 91 |
| Cc1c(CC(=O)O)c2ccccc2c(=O)n1OCc1ccc(Cl)c(Cl)c1 [Example 4, 2-(3,4-Dichlorobenzyloxy)-1,2-dihydro-3-methyl-1-oxo-4-isoquinoline Acetic Acid] | 90 | 77 |
| Cc1nc(OCc2ccc(Cl)c(Cl)c2)c2ccccc2c1CC(=O)O [Example 8, 1-(3,4-Dichlorobenzyloxy)-3-methyl-4-isoquinoline Acetic Acid] | 83 | 95 |

Further lines, results first:

| inhibition at 100 µM [%] | inhibition at 10 µM [%] | Compound |
| --- | --- | --- |
| 99 | 97 | Cc1nc(N(C)Cc2ccc(Cl)cc2)c2ccccc2c1CC(=O)O [Example 10, 1-(N-4-Chlorobenzyl-N-methyl-amino)-3-methyl-4-isoquinoline Acetic Acid Hydrochloride] |
| 27 | – | Cc1c(CC(=O)O)c2ccccc2c(=O)n1Cc1ccc(Cl)c(Cl)c1 [Example 7, 2-(3,4-Dichlorobenzyl)-1,2-dihydro-3-methyl-1-oxo-4-isoquinoline Acetic Acid] |
